Experimental data reported in patent publication US6436420B1, “High performance silver (I,III) oxide antimicrobial textile articles” (Marantech Holding, LLC, priority 2000, dated 2002).

How the values were obtained:
[1] = test system: very virulent strain of Staph; assay type: cell-based; settings: calculated from inhibition zone being inversely proportional to MIC
Excerpt: (§1) An independent medical researcher in Israel obtained a very virulent strain of Staph from a patient at the Shaarei Tzedek Hospital in Jerusalem. […] This Staph strain was utilized as the Staph source, and the otherwise exact test protocol described above was repeated. […] Only one test swatch was used for the Staph evaluation.

[2] = test system: all Gram Negative bacteria listed in Table 1; settings: same reasoning applied to PA marker
Excerpt: as §1

[3] = test system: all Gram positive bacteria listed in Table 1; settings: extrapolated from virulent Staph result
Excerpt: as §1

Escherichia coll 10231 = settings: Escherichia coll 10231, Gram Negative; cited from earlier work
Escherichia coll 25254 = settings: Escherichia coll 25254, Gram Negative; cited from earlier work
[4] = test system: Enterobacter cloacae 13047; settings: Enterobacter cloacae 13047, Gram Negative; cited from earlier work
[5] = test system: Pseudomonas aeruginosa 9027; settings: Pseudomonas aeruginosa 9027, Gram Negative; cited from earlier work
Bacillus subtilis 6633 = settings: Bacillus subtilis 6633, Gram Positive; cited from earlier work
Micrococcus lutena 9341 = settings: Micrococcus lutena 9341, Gram Positive; cited from earlier work
[6] = test system: Staphylococcus aureus 0927; settings: Staphylococcus aureus 0927, Gram Positive; cited from earlier work
[7] = test system: Staphylococcus aureus 27543; settings: Staphylococcus aureus 27543, Gram Positive; cited from earlier work
[8] = test system: Staphylococcus epidermidis 12228; settings: Staphylococcus epidermidis 12228, Gram Positive; cited from earlier work
[9] = test system: Streptococcus agalactiae 27956; settings: Streptococcus agalactiae 27956, Gram Positive; cited from earlier work
[10] = test system: Streptococcus faecium 10541; settings: Streptococcus faecium 10541, Gram Positive; cited from earlier work
[11] = test system: Streptococcus-pyogenes 7958; settings: Streptococcus-pyogenes 7958, Gram Positive; cited from earlier work
Candida albicans 16404 = settings: Candida albicans 16404, Yeast and Mold; cited from earlier work
[12] = test system: Saccharomyces cerevisiae 2601; settings: Saccharomyces cerevisiae 2601, Yeast and Mold; cited from earlier work

SMILES: [Ag+].[Ag+].[Ag+].[Ag+].[O-2].[O-2].[O-2].[O-2] [Ag4O4, tetrasilver tetroxide]
- MIC for the virulent Staph strain [1]: 40.5-61.0 PPM
- inhibition of all Gram Negative bacteria listed in Table 1 [2]: inhibition
- inhibition of all listed Gram positive bacteria [3]: capable of inhibiting
- MIC (Minimal Inhibitory Concentration) (Escherichia coll 10231): 2.50 PPM
- MIC (Minimal Inhibitory Concentration) (Escherichia coll 25254): 2.50 PPM
- MIC (Minimal Inhibitory Concentration) [4]: 2.50 PPM
- MIC (Minimal Inhibitory Concentration) [5]: 1.25-2.50 PPM
- MIC (Minimal Inhibitory Concentration) (Bacillus subtilis 6633): 5.00 PPM
- MIC (Minimal Inhibitory Concentration) (Micrococcus lutena 9341): 1.25-2.50 PPM
- MIC (Minimal Inhibitory Concentration) [6]: 2.50-5.00 PPM
- MIC (Minimal Inhibitory Concentration) [7]: 5.00 PPM
- MIC (Minimal Inhibitory Concentration) [8]: 0.625 PPM
- MIC (Minimal Inhibitory Concentration) [9]: 1.25-5.00 PPM
- MIC (Minimal Inhibitory Concentration) [10]: 5.00 PPM
- MIC (Minimal Inhibitory Concentration) [11]: 2.50 PPM
- MIC (Minimal Inhibitory Concentration) (Candida albicans 16404): 2.50-5.0 PPM
- MIC (Minimal Inhibitory Concentration) [12]: 1.25 PPM
